Experimental data reported in article PMC11462627, “SAL0114: a novel deuterated dextromethorphan-bupropion combination with improved antidepressant efficacy and safety profile” (Frontiers in Pharmacology, 2024).

What was measured:
nAchR α3β4 = biological target: T1, nAchR α3β4 (Homo sapiens, UniProt P30926+P32297); experiment: nAchR α3β4 radioligand binding (125I-epibatidine, recombinant CHO-K1 cells); conditions: 125I-epibatidine competition, human recombinant CHO-K1 cells, mean, n = 2; read-out: Ki, α3β4 nicotinic acetylcholine receptors
T1 construct: host or cells: CHO-K1
T1 sequence (P32297 32-505): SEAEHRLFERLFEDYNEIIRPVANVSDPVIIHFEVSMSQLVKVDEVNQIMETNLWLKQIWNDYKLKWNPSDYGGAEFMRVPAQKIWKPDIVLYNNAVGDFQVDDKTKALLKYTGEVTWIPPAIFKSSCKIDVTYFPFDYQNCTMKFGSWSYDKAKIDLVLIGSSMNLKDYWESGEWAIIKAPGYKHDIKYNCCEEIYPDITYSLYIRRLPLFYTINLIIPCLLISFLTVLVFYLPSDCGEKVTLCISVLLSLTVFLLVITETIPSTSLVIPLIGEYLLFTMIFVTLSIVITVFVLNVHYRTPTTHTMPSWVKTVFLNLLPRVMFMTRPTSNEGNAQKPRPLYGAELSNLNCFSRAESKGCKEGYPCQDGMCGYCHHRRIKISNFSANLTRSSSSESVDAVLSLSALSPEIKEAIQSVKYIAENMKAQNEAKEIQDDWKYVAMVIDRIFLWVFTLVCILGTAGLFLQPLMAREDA
T1 sequence (P30926 22-498): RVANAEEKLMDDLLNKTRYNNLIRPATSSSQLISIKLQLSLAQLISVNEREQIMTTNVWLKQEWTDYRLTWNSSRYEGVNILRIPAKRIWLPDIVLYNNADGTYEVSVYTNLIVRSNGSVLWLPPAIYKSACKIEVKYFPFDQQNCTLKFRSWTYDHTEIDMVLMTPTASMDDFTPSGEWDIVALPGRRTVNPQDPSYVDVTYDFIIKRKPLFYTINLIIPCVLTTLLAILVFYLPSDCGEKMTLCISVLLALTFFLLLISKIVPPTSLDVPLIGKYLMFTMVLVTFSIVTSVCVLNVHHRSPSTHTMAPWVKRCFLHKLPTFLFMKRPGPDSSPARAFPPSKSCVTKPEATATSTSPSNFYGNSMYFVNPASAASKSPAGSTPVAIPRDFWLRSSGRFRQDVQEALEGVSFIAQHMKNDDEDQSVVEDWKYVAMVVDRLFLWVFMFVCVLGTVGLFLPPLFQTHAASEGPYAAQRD
Experimental: The experiments were carried out in the Eurofins Discovery laboratory, and the methods were referenced from previous studies with modifications ([Michelmore et al., 2002]; [Zaveri et al., 2010]). The competitive binding of the samples and ^125I-epibatidine to the nAchR α3β4 in human recombinant CHO-K1 cells was assessed using a radioligand binding method. The ability of the compound to competitively bind to nAchR α3β4 (Ki) was determined by detecting the signal value of the radioligand bound to the receptor.

[1] = biological target: T2, norepinephrine transporter (Homo sapiens, UniProt P23975); experiment: Norepinephrine transporter (NET) radioligand binding (3H-Nisoxetine); conditions: 3H-Nisoxetine competition, mean, n = 2; read-out: Ki, norepinephrine transporter
T2 construct: purchased PerkinElmer, Inc RBHNETM400UA
T2 sequence (P23975 whole entry): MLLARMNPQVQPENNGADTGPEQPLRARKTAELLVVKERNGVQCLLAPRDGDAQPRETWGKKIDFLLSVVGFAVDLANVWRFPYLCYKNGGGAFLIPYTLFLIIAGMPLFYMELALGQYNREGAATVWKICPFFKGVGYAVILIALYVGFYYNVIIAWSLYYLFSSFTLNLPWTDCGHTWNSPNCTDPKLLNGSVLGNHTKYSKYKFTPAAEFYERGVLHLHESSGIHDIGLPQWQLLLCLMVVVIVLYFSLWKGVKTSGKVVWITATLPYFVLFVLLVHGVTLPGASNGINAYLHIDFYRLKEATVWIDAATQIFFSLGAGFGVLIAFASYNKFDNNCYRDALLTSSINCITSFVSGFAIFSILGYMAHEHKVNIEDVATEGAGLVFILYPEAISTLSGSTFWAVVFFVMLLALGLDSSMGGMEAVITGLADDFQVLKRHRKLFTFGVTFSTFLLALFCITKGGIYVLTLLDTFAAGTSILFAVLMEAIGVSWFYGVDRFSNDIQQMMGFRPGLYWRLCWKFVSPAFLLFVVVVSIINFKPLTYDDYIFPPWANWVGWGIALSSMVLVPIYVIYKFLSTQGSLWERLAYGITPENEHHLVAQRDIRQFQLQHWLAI
Experimental: The experiments were carried out in the Pharmaron laboratory, and the methods were referenced from previous studies with modifications ([Bylund and Toews, 1993]; [Galli et al., 1995]). Competitive binding of the compound and ^3H-Nisoxetine to NETs was assessed using a radioligand binding method. The ability of the compound to competitively bind to NET (Ki) was determined by detecting the signal value of the radioligand bound to the transporter using a Microbeta instrument (2450, Perkin Elmer, Massachusetts, United States).

[2] = Metabolic stability in liver microsomes; format: in vitro ADME, human
Experimental: All incubations were performed in duplicates. Verapamil was used as the positive control. After pre-warming the mixture for 5 min, reactions were initiated by the addition of NADPH (1 mM). Samples (30 μL) were taken at 0, 20, and 60 min, and the reaction was immediately terminated by adding 150 μL acetonitrile containing an analytical internal standard (IS). Samples were centrifuged at 4,000 rpm for 5 min in a centrifuge (5810R, Eppendorf, Germany), and the supernatant was analyzed by LC-MS/MS (Thermo Scientific TSQ Quantum Ultra, United States).
The in vivo clearance values (CLint = CLint, in vitro × (mg protein/g liver weight) × (g liver weight/kg body weight)) of humans were predicted by CLint, in vitro values using physiologically-based scaling factors, hepatic microsomal protein concentrations (48.8 mg protein/g liver), and liver weights (25.7 g/kg body weight). The in vivo hepatic clearance (CLH= (Q × CLint)/(Q + CLint)) was then calculated by using CLint and hepatic blood flow, Q (20.7 mL·min^−1·kg^−1 in humans).

ICR mice [3] = experiment: Forced swim test; format: in vivo; conditions: FST, oral, 1 h after administration, deDM 10 and 18 mg/kg, BUP 50 mg/kg, deDM + BUP 10 + 50 and 18 + 50 mg/kg
Experimental: The mouse forced swim test was performed in a way similar to that published previously by Nguyen et al. ([Nguyen et al., 2017]) with some modifications. […] All compounds were administered orally via gavage at a volume of 10 mL/kg body weight, with the vehicle group receiving an equivalent volume of saline. 1 h after administration, mice underwent the forced swim test (FST), a widely used behavioral assay for evaluating antidepressant-like effects. Each mouse was individually placed in a transparent cylindrical tank filled with water (depth: 18 cm, temperature: 25°C ± 1°C) for a 6-min test session. The initial 2 min served as the acclimatization period and was not scored. Floating time during the subsequent 4 min was measured using ANY-Maze Version 4.63 video tracking software (Stoelting Co., Illinois, United States). Floating was defined as the minimum movement required to keep the animal’s head above water. Floating time (%) = floatting time(s)/240 s. The ANY-Maze software parameters were set as follows: acclimatization period = 120 s, test duration = 240 s, minimum immobility time = 2 s, and immobility sensitivity = 75%. To maintain consistent conditions, water was changed between the animals. […]

ICR mice [4] = experiment: Tail suspension test; format: in vivo; conditions: TST, oral, 1 h after administration, deDM 10 and 18 mg/kg, BUP 50 mg/kg, deDM + BUP 10 + 50 and 18 + 50 mg/kg
Experimental: The TST was adapted from the behavioral despair test described by Nguyen et al. ([Nguyen et al., 2017]), with some modifications. […] All compounds were administered orally via gavage at a volume of 10 mL/kg body weight, with the vehicle group receiving an equivalent volume of saline. One hour after administration, mice underwent a tail suspension test (TST). For the TST, each mouse was suspended by its tail, with adhesive tape attached 2 cm from the tail tip and secured to a metal rod. Care was taken to ensure a minimum distance of 15 cm between the suspended animal and the surrounding objects. The test was performed using the ANY-maze version 4.63 video tracking program (Stoelting Co., Wood Dale, IL, United States) for a total duration of 6 min. The initial 2 min served as an acclimatization period and were not scored. The immobility time during the subsequent 4 min was measured using the same software. Immobility was defined as mouse hanging passively and motionless. The ANY-Maze software parameters were set as follows: acclimatization period = 120 s, test duration = 240 s, minimum immobility time = 2 s, and immobility sensitivity = 75%. […]

[5] = Pharmacokinetics in male SD rat after oral administration; format: in vivo; conditions: DM or deDM, male SD rat, oral, 50 mg/kg, mean, n=3
Text: (§1) Results expressed as mean, n=3 per group

[6] = Pharmacokinetics in beagle dog after oral administration; format: in vivo; conditions: deDM, 14 mg/kg, mean, n=3
Text: as §1

For deuterated dextromethorphan [deDM], the Ki (nAchR α3β4) was 15.8 µM, the Ki [1] was 17.1 µM and the T1/2 ([2]; 1 μM, 0.5 mg/mL human liver microsomes, NADPH 1 mM, 37°C, mean, n = 2) was 2.265 h. The “CLint, in vitro” value ([2]; human liver microsomes, calculated from t1/2, mean, n = 2) was 12.8 mL/min/kg, the CLH ([2]; in vivo hepatic clearance predicted from CLint and hepatic blood flow 20.7 mL/min/kg, human) was 7.9 mL/min/kg and the “floating time compared to the vehicle group” value (ICR mice [3]) was “did not significantly reduce the floating time”. The “immobilization time compared to the vehicle group” value (ICR mice [4]) was “did not significantly reduce the immobilization time”, the AUC0-last [5] was 374 ng·h/mL and the Cmax [5] was 84 ng/mL. The “AUC0-last (♀)” value ([6]; female beagle dog) was 153 ng·h/mL, the “Cmax (♀)” value ([6]; female beagle dog) was 60 ng/mL and the “AUC0-last (♂)” value ([6]; male beagle dog) was 383 ng·h/mL. For the same substance, the “Cmax (♂)” value ([6]; male beagle dog) was 157 ng/mL.
